“And” between values parts separate entries of the source, which are not always exact repeats. Identical values can stand only once.
Columns and labels:
[1] = cited from earlier work
[2] = Specific surface area by B.E.T. nitrogen absorption analysis; type: physicochemical; conditions: isolated crystalline solid of the example, after drying or spray drying
Text: Specific surface area is defined in units of square meters per gram (m^2/g). It is usually measured by nitrogen absorption analysis. In this analysis, nitrogen is absorbed on the surface of the substance. The amount of the absorbed nitrogen (as measured during the absorption or the subsequent desorption process) is related to the surface area via a formula known as the B.E.T. formula.

| SMILES | solubility in chloroform ([1]; chloroform) | solubility in water ([1]; water) | Specific Surface Area [2] |
| --- | --- | --- | --- |
| O=C1C(O)=C([C@H]2CC[C@H](c3ccc(Cl)cc3)CC2)C(=O)c2ccccc21 [Atovaquone, trans-2-[4-(4-chlorophenyl)cyclohexyl]-3-hydroxy-1,4-naphthoquinone] | soluble | practically insoluble | – |
| O=C1C(O)=C([C@H]2CC[C@H](c3ccc(Cl)cc3)CC2)C(=O)c2ccccc21 [atovaquone Form I, trans-2-[4-(4-chlorophenyl)cyclohexyl]-3-hydroxy-1,4-naphthoquinone] | – | – | 0.54 m^2/g |
| O=C1C(O)=C([C@H]2CC[C@H](c3ccc(Cl)cc3)CC2)C(=O)c2ccccc21 [atovaquone crystalline form A, trans-2-[4-(4-chlorophenyl)cyclohexyl]-3-hydroxy-1,4-naphthoquinone] | – | – | 0.76 m^2/g |
| O=C1C(O)=C([C@H]2CC[C@H](c3ccc(Cl)cc3)CC2)C(=O)c2ccccc21 [atovaquone crystalline form B, trans-2-[4-(4-chlorophenyl)cyclohexyl]-3-hydroxy-1,4-naphthoquinone] | – | – | 2.84 m^2/g and 3.12 m^2/g |
